± gives the standard deviation of the averaged measurements.
Experiments:
Test in all cases: drug sensitivity score (DSS) (DSS score); higher = more sensitive (stronger growth inhibition); extreme values may be limits of the assay
[1] = system: Ba/F3 P210-BCR-ABL1 RUNX1-/- (mouse)
Outline: (§1)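 Each value is a drug sensitivity score derived from CellTiter-Glo luminescence scaled between vehicle and positive-control wells. Mouse Ba/F3 clones, CRISPR/Cas9-edited at a target exon or edited controls, were seeded at 10,000 cells per well in RPMI with 10% FBS and treated for 72 h at 37 °C and 5% CO2. Compounds from a 528-compound library were tested at five concentrations over a 10,000-fold range, and scores were averaged over two replicates.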

[2] = system: Ba/F3 P210-BCR-ABL1 RUNX1-/mut (mouse)
Outline: as §1

[3] = system: Ba/F3 P210-BCR-ABL1 RUNX1wt/wt control (mouse)
Outline: as §1

Row | SMILES | drug sensitivity score [1] | drug sensitivity score [2] | drug sensitivity score [3]
1 | CCC(C)(C)C(=O)O[C@H]1C[C@@H](C)C=C2C=C[C@H](C)[C@H](CC[C@@H]3C[C@@H](O)CC(=O)O3)[C@H]21 [Simvastatin] | 0.4 ± 0.42 | 0.6 ± 0.85 | 0.05 ± 0.071
2 | O=C(/C=C/c1cccnc1)NCCCCC1CCN(C(=O)c2ccccc2)CC1 [Daporinad] | 19.4 ± 0.35 | 20.5 ± 4.7 | 15.9 ± 0.71
3 | Cc1cnc(Nc2ccc(OCCN3CCCC3)cc2)nc1Nc1cccc(S(=O)(=O)NC(C)(C)C)c1 [Fedratinib] | 11.7 ± 2 | 10.4 ± 2.7 | 5.8
4 | Cc1cnc(NC(=O)Nc2cc(Br)c(C)cc2OC[C@@H]2CNCCO2)cn1 [Rabusertib] | 3.25 ± 1.6 | 3.3 ± 0.14 | 0.45 ± 0.49
5 | Cc1[nH]nc(C(F)(F)F)c1Cc1sc2c(c1C(=O)N1C[C@](C)(O)CO1)c(=O)n(C)c(=O)n2C(C)C [AZD3965] | 9.05 ± 3.5 | 6.3 ± 0.99 | 0
6 | Cc1nc(Nc2n[nH]c3c2CN(C(=O)N[C@H](CN(C)C)c2ccccc2)C3(C)C)c2sccc2n1 | 40.15 ± 0.35 | 37.2 ± 0.64 | 24.85 ± 0.071
7 | CC(C)(O)CC(=O)NCCn1ccc2ncnc(Nc3ccc(Oc4cccc(C(F)(F)F)c4)c(Cl)c3)c21 [TAK-285] | 0 | 0.5 ± 0.71 | 0
8 | O=C(O)CC1CC(c2ccccc2)=NO1 (stereo not drawn) [VGX-1027] | 0.9 ± 1.3 | 0.05 ± 0.071 | 0
9 | CC(C)(O)CNc1nc(Nc2ccnc(C(F)(F)F)c2)nc(-c2cccc(C(F)(F)F)n2)n1 [Enasidenib] | 0.4 ± 0.14 | 0.55 ± 0.78 | 0
10 | CC[C@H](CO)Nc1nc(NCc2ccccc2)c2ncn(C(C)C)c2n1 [Seliciclib] | 1.3 ± 0.14 | 0.4 ± 0.57 | 0
11 | COc1cc2c(cc1-c1c(C)noc1C)ncc1[nH]c(=O)n([C@H](C)c3ccccn3)c12 [I-BET151] | 18.6 ± 0.78 | 18.4 ± 2.3 | 13.9
12 | CCS(=O)(=O)Nc1ccc(Oc2ccc(F)cc2F)c(-c2cn(C)c(=O)c3[nH]ccc23)c1 [Mivebresib] | 41.35 ± 0.21 | 41 ± 2 | 34 ± 1.3
13 | CCOc1ccccc1-n1c(C(C)N2CCN(C(=O)COc3ccc(Cl)cc3)CC2)nc2ccccc2c1=O (stereo not drawn) [Erastin] | 11.2 ± 1.1 | 8.45 ± 5.9 | 0
14 | Cc1nn(C)c(COc2ccc(N3CCN(S(=O)(=O)N(C)C)CC3)cc2)c1-c1cccc2c(CCCOc3cccc4ccccc34)c(C(=O)O)n(CCN3CCOCC3)c12 | 6.9 ± 0.85 | 6.6 ± 0.14 | 6.65 ± 0.64
15 | NC(=O)c1cccc(-c2cccc(OC(=O)NC3CCCCC3)c2)c1 [URB597] | 0 | 0.15 ± 0.21 | 0.05 ± 0.071
16 | CC(C)NC(=O)COc1cccc(-c2nc(Nc3ccc4[nH]ncc4c3)c3ccccc3n2)c1 [KD025] | 2 ± 1.7 | 2.3 ± 1.4 | 0
17 | O=C(Nc1cccc(NC(=O)c2cccc(O)c2O)c1)c1cccc(O)c1O [MST-312] | 16.6 ± 0.21 | 17.1 ± 2 | 17.2 ± 0.42
18 | CCNC(=O)C[C@@H]1N=C(c2ccc(Cl)cc2)c2cc(OC)ccc2-n2c(C)nnc21 [Molibresib] | 18.4 ± 1.6 | 18.1 ± 2 | 12.1 ± 0.14

Row | SMILES | drug sensitivity score [1] | drug sensitivity score [2] | drug sensitivity score [3]
19 | Cc1ncc(-c2ccnc(Nc3ccc(S(C)(=O)=O)cc3)n2)n1C(C)C [AZD-5438] | 5.5 ± 0.99 | 8.8 ± 0.99 | 9.8 ± 0.14
20 | CCc1c(C(=O)C(N)=O)c2c(OCC(=O)O)cccc2n1Cc1ccccc1 [Varespladib] | 0 | 0.65 ± 0.92 | 0
21 | COc1cc2c(cc1OC(C)C)[C@H](c1ccc(Cl)cc1)N(c1ccc(N(C)C[C@H]3CC[C@H](N4CCN(C)C(=O)C4)CC3)cc1)C(=O)C2 [NVP-CGM097] | 8.7 ± 0.71 | 8.8 ± 3 | 6.3 ± 0.28
22 | N#Cc1ccc(COC[C@H]2O[C@@H](n3c(NCc4ccc(Cl)c(Cl)c4)nc4c(N)ncnc43)[C@H](O)[C@@H]2O)cc1 | 9.1 ± 1.8 | 11.2 ± 4 | 3.55 ± 0.071
23 | O=C(O)C1(C(=O)O)CCC1.[NH2-].[NH2-].[Pt+2] [Carboplatin] | 6.65 ± 1.8 | 6.9 ± 1.8 | 3.45 ± 0.21
24 | CC(O)c1cc(C(=O)N[C@@H](C)Cn2ccc(-c3ccc(C#N)c(Cl)c3)n2)n[nH]1 (stereo partly drawn) [ODM-201] | 2.55 ± 0.071 | 2.05 ± 1.9 | 0
25 | Cc1cc(Nc2ncc(Cl)c(Nc3ccccc3S(=O)(=O)C(C)C)n2)c(OC(C)C)cc1C1CCNCC1 [Ceritinib] | 0.8 ± 1.1 | 0.75 ± 1.1 | 1.35 ± 0.78
26 | CCOC(=O)CCNc1cc(N2CCc3ccccc3CC2)nc(-c2ccccn2)n1 [GSK-J4] | 5.1 ± 4.8 | 4.5 ± 3.8 | 2.45 ± 0.78
27 | CC(C)NC[C@@H](C(=O)N1CCN(c2ncnc3c2[C@H](C)C[C@H]3O)CC1)c1ccc(Cl)cc1 [Ipatasertib] | 4.75 ± 0.92 | 3.4 ± 2.7 | 0.3 ± 0.42
28 | CCc1cncnc1N1CCN(Cc2nc3ccc(C(F)(F)F)cc3[nH]2)CC1 | 2 ± 1.1 | 0.8 ± 1.1 | 0
29 | N#CC(c1ccnc(OCc2ccc(CN3CCOCC3)cc2)n1)c1nc2ccccc2s1 (stereo not drawn) [Bentamapimod] | 2.55 ± 1.6 | 0.75 ± 1.1 | 4.25 ± 0.49
30 | CN1CCN(C2CCC(n3cc(-c4ccc(Oc5ccccc5)cc4)c4c(N)ncnc43)CC2)CC1 (stereo not drawn) | 23.4 ± 0.28 | 17.9 ± 1.1 | 16.6 ± 0.71
31 | CC(C)[C@@H](CS(=O)(=O)C(C)C)N1C(=O)[C@@](C)(CC(=O)O)C[C@H](c2cccc(Cl)c2)[C@H]1c1ccc(Cl)cc1 [AMG-232] | 12.7 ± 2.3 | 11.2 ± 1.6 | 3.7 ± 0.28
32 | O=c1sn(-c2cccc3ccccc23)c(=O)n1Cc1ccccc1 [Tideglusib] | 0 | 0 | 0
33 | CC(C)c1cc(-c2n[nH]c(=O)n2-c2ccc3c(ccn3C)c2)c(O)cc1O [Ganetespib] | 24.8 ± 3.4 | 23.6 ± 2.2 | 19.1 ± 0.21
34 | Nc1cc(F)ccc1NC(=O)c1ccc(CNC(=O)/C=C/c2cccnc2)cc1 [Tucidinostat] | 9.05 ± 2.8 | 8.05 ± 4.6 | 4.9 ± 0.14
35 | CO[C@H]1CC[C@H](N2C(=O)CNc3ncc(-c4ccc(C(C)(C)O)nc4)nc32)CC1 [CC-223] | 7.25 ± 0.64 | 6.65 ± 2.2 | 2.45 ± 0.071
36 | CN[C@@H](C)C(=O)N[C@H]1CN(C(=O)CC(C)C)CC[C@H]2CC[C@@H](C(=O)NC(c3ccccc3)c3ccccc3)N2C1=O [AT-406] | 18.4 ± 1.8 | 4.4 ± 6.2 | 13 ± 1.4
